Source: ChEMBL document CHEMBL2424515, “Identification of novel substrates and structure-activity relationship of cellular uptake mediated by human organic cation transporters 1 and 2” (J Med Chem, 2013)

T1: OCT1 (SLC22A1) (Homo sapiens, UniProt O15245)
T1 sequence (O15245 whole entry): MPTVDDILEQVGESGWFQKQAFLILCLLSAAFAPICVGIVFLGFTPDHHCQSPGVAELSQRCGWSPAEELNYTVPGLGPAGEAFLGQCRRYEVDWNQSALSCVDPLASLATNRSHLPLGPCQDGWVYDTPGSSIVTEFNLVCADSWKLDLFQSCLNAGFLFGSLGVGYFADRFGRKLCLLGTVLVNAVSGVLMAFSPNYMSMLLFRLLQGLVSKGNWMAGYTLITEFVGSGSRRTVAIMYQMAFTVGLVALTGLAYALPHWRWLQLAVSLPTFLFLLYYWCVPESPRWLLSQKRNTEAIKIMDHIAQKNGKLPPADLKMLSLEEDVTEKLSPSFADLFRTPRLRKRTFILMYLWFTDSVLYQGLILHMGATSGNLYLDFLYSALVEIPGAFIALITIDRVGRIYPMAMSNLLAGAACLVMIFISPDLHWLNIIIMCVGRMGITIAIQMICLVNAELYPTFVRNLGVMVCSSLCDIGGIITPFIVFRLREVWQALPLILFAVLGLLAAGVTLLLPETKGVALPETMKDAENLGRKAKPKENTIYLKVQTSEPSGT

T2: OCT2 (SLC22A2) (Homo sapiens, UniProt O15244)
T2 sequence (O15244 whole entry): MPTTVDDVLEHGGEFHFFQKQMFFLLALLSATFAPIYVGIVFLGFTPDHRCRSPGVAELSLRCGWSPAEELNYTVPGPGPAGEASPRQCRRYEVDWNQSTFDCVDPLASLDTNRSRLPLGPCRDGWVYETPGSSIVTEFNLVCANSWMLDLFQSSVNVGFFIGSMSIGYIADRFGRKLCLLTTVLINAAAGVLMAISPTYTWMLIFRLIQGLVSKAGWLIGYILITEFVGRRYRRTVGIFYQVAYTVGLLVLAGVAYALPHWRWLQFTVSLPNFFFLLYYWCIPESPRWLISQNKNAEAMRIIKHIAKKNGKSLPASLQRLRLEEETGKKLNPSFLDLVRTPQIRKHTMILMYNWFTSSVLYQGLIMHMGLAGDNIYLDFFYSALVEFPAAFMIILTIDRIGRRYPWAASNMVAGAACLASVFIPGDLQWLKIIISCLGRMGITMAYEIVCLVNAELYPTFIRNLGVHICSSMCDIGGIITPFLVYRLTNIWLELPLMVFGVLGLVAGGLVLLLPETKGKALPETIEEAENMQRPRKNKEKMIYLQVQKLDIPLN

T3: Solute carrier family 22 member 2 (Homo sapiens, UniProt O15244)
T3 sequence (O15244 whole entry): T2 sequence (O15244 whole entry)

T4: Solute carrier family 22 member 1 (Homo sapiens, UniProt O15245)
T4 sequence (O15245 whole entry): T1 sequence (O15245 whole entry)

B1: Solute carrier family 22 member 1 (Homo sapiens) (protein)
chain: T1 sequence (O15245 whole entry)
B2: Solute carrier family 22 member 2 (Homo sapiens) (protein)
chain: T2 sequence (O15244 whole entry)

What was measured:
[1] = target: T1, OCT1 (SLC22A1); experiment: Cellular uptake in human HEK293 cells assessed as human OCT1-mediated drug transport at 2.5 uM after 4 mins by LC-MS/MS analysis relative to passive uptake; assay type: ADME, cell-based; settings: HEK293 cells expressing human OCT1, read-out: FC
[2] = target: T2, OCT2 (SLC22A2); experiment: Cellular uptake in human HEK293 cells assessed as human OCT2-mediated drug transport at 2.5 uM after 4 mins by LC-MS/MS analysis relative to passive uptake; assay type: ADME, cell-based; settings: HEK293 cells expressing human OCT2, read-out: FC
[3] = target: T3, Solute carrier family 22 member 2; experiment: Cellular uptake in human HEK293 cells assessed as human OCT2-mediated drug transport at 2.5 uM after 4 mins by LC-MS/MS analysis; assay type: ADME, cell-based; settings: hek293, 4 min
[4] = target: T4, Solute carrier family 22 member 1; experiment: Cellular uptake in human HEK293 cells assessed as human OCT1-mediated drug transport at 2.5 uM after 4 mins by LC-MS/MS analysis; assay type: ADME, cell-based; settings: hek293, 4 min
[5] = substrate: CC[N+](CC)(CC)CC; experiment: cells, lysate or membranes named
[6] = substrate: CN/C(=N/CCSCc1nc[nH]c1C)NC#N; experiment: cells, lysate or membranes named

Molecule	uptake ratio at 4 min, 2.5 µM [1]	uptake ratio at 4 min, 2.5 µM [2]	Drug uptake [3] [pmol/mg]	Drug uptake [4] [pmol/mg]	Km [5] [µM]	Km [6] [µM]
CNS(=O)(=O)Cc1ccc2[nH]cc(CCN(C)C)c2c1	15	3.3	94	620		
NCCOc1ccccc1-c1nc(C(N)=O)c(NC(N)=O)s1	13	1.3	40	796		
NCCCOc1ccccc1-c1nc(C(N)=O)c(NC(N)=O)s1	14	1.5	23	739		
NC(=O)Nc1sc(-c2ccccc2O[C@H]2CCNC2)cc1C(N)=O	26	1.9	37	1047		
NC(=O)Nc1sc(-c2ccccc2O[C@@H]2CCNC2)cc1C(N)=O	15	1.1	6.6	586		
NC(=O)Nc1sc(-c2ccccc2OC2CCNCC2)cc1C(N)=O	17	1.8	35	821		
NC(=O)Nc1sc(-c2ccccc2OC2CNC2)cc1C(N)=O	11	2.2	63	641		
NC(=O)Nc1sc(-c2cccc(OC3CCNC3)c2)cc1C(N)=O (racemic)	68	1.6	21	1352		
C[N+]1(C)CCC(Oc2ccccc2-c2cc(C(N)=O)c(NC(N)=O)s2)C1 (racemic)	53	4.3	46	903		
N#Cc1ccc(OC2CCNC2)c(-c2cc(C(N)=O)c(NC(N)=O)s2)c1 (racemic)	39	1.6	22	1653		
NC(=O)Nc1sc(-c2ccc(OC3CCNC3)cc2)cc1C(N)=O (racemic)	73	1.4	8.5	1493		
CC(C)(C)NCC(O)c1ccc(O)c(CO)c1 (centres undefined) [ALBUTEROL]	11	15	270	58		
N=C(N)NC(=O)c1nc(Cl)c(N)nc1N [AMILORIDE]	76	74	1660	1430		
CN/C(=N/CCSCc1nc[nH]c1C)NC#N [CIMETIDINE]	6.5	15	270	65		
CN(C)C(=N)N=C(N)N [METFORMIN]			110	5.4		
CC[N+](C)(CC)CCOC(=O)C(O)(c1ccccc1)C1CCCCC1 (centres undefined) [OXYPHENONIUM]	25	14	230	640		
[H]/N=C(/N)N/C(=N/[H])NCCc1ccccc1 [PHENFORMIN]	> 39	> 35	450	570		
CCC(NC(C)C)C(O)c1ccc(O)c2[nH]c(=O)ccc12 (centres undefined) [PROCATEROL]	11	1.9	14	140		
CNC(=C[N+](=O)[O-])NCCSCc1ccc(CN(C)C)o1 [RANITIDINE]	18	1.6	22	600		
C[N+]1(C)[C@@H]2C[C@@H](OC(=O)C(O)(c3cccs3)c3cccs3)C[C@H]1[C@@H]1O[C@@H]12 [TIOTROPIUM]	75	39	460	820		
O=C(NCCNCC(O)COc1ccc(O)cc1)N1CCOCC1 (centres undefined) [XAMOTEROL]	43	1.6	5.2	230		
B1					140	
B2						60
